Laboratory results taken from US9113629B2, “4-amino-6-(4-substituted-phenyl)-picolinates and 6-amino-2-(4-substituted-phenyl)-pyrimidine-4-carboxylates and their use as herbicides” (DOW AGROSCIENCES LLC, priority 2013, dated 2015).
Where two headings read alike, the source gives them in different places.

Experiments:
[1] = test system: Key Broadleaf Weed and Crop Species; experiment: Post-emergent Test II herbicidal activity (Table 5); format: in vivo; settings: post-emergence, 336 h, 14 days after application
Procedure, shortened: (§1)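 Scoring: visual, 0–100% injury at 14 d versus untreated. Treatment: overhead track spray, 187 L/ha, onto plants at the first–second true leaf stage. Growth: greenhouse, ~15 h light, 23–29 °C day, 22–28 °C night.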

[2] = test system: Key Grass and Sedge Weeds as well as Grass Crops; experiment: Post-emergent Test II herbicidal activity (Table 6); format: in vivo; settings: post-emergence, 336 h; for pest or weed control at 70 g/ha: application rate 70 g ai/ha; for pest or weed control at 140 g/ha: application rate 140 g ai/ha
Procedure, shortened: as §1

[3] = Triticum aestivum, TRZSS (wheat), read-out: Visual Growth Reduction (%) 14 Days After Application, TRZSS
[4] = CYPES: yellow nutsedge (Cyperus esculentus), read-out: Visual Growth Reduction (%) 14 Days After Application, CYPES
[5] = DIGSA: crabgrass (Digitaria sanguinalis), read-out: Visual Growth Reduction (%) 14 Days After Application, DIGSA
[6] = ECHCG: barnyardgrass (Echinochloa crus-galli), read-out: Visual Growth Reduction (%) 14 Days After Application, ECHCG
[7] = ORYSA: rice (Oryza sativa), read-out: Visual Growth Reduction (%) 14 Days After Application, ORYSA
[8] = SETFA: giant foxtail (Setaria faberi), read-out: Visual Growth Reduction (%) 14 Days After Application, SETFA
[9] = SORVU: grain sorghum (Sorghum vulgare), read-out: Visual Growth Reduction (%) 14 Days After Application, SORVU
[10] = ZEAMX: maize, corn (Zea mays), read-out: Visual Growth Reduction (%) 14 Days After Application, ZEAMX
[11] = ABUTH: velvetleaf (Abutilon theophrasti), 70 g ai/ha, post-emergent, read-out: Visual Growth Reduction (%) 14 Days After Application ABUTH
[12] = ABUTH: velvetleaf (Abutilon theophrasti), 140 g ai/ha, post-emergent, read-out: Visual Growth Reduction (%) 14 Days After Application ABUTH
[13] = AMARE: redroot pigweed (Amaranthus retroflexus), 70 g ai/ha, post-emergent, read-out: Visual Growth Reduction (%) 14 Days After Application AMARE
[14] = AMARE: redroot pigweed (Amaranthus retroflexus), 140 g ai/ha, post-emergent, read-out: Visual Growth Reduction (%) 14 Days After Application AMARE
[15] = BRSNN: oilseed-rape, canola (Brassica napus), 70 g ai/ha, post-emergent, read-out: Visual Growth Reduction (%) 14 Days After Application BRSNN
[16] = BRSNN: oilseed-rape, canola (Brassica napus), 140 g ai/ha, post-emergent, read-out: Visual Growth Reduction (%) 14 Days After Application BRSNN
[17] = CHEAL: lambsquarters (Chenopodium album), 70 g ai/ha, post-emergent, read-out: Visual Growth Reduction (%) 14 Days After Application CHEAL
[18] = CHEAL: lambsquarters (Chenopodium album), 140 g ai/ha, post-emergent, read-out: Visual Growth Reduction (%) 14 Days After Application CHEAL
[19] = EPHHL: wild poinsettia (Euphorbia heterophylla), 70 g ai/ha, post-emergent, read-out: Visual Growth Reduction (%) 14 Days After Application EPHHL
[20] = EPHHL: wild poinsettia (Euphorbia heterophylla), 140 g ai/ha, post-emergent, read-out: Visual Growth Reduction (%) 14 Days After Application EPHHL
[21] = HELAN: sunflower (Helianthus annuus), 70 g ai/ha, post-emergent, read-out: Visual Growth Reduction (%) 14 Days After Application HELAN
[22] = HELAN: sunflower (Helianthus annuus), 140 g ai/ha, post-emergent, read-out: Visual Growth Reduction (%) 14 Days After Application HELAN
[23] = VIOTR: wild pansy (Viola tricolor), 70 g ai/ha, post-emergent, read-out: Visual Growth Reduction (%) 14 Days After Application VIOTR
[24] = VIOTR: wild pansy (Viola tricolor), 140 g ai/ha, post-emergent, read-out: Visual Growth Reduction (%) 14 Days After Application VIOTR
[25] = TRZSS (wheat, Triticum aestivum), read-out: Visual Growth Reduction (%) 14 Days After Application, TRZSS

melting point | SMILES | pest or weed control at 70 g/ha [2, 3] [%] | pest or weed control at 140 g/ha [2, 3] [%] | pest or weed control at 70 g/ha [2, 4] [%] | pest or weed control at 140 g/ha [2, 4] [%] | pest or weed control at 70 g/ha [2, 5] [%] | pest or weed control at 140 g/ha [2, 5] [%] | pest or weed control at 70 g/ha [2, 6] [%] | pest or weed control at 140 g/ha [2, 6] [%] | pest or weed control at 70 g/ha [2, 7] [%] | pest or weed control at 140 g/ha [2, 7] [%] | pest or weed control at 70 g/ha [2, 8] [%] | pest or weed control at 140 g/ha [2, 8] [%] | pest or weed control at 70 g/ha [2, 9] [%] | pest or weed control at 140 g/ha [2, 9] [%] | pest or weed control at 70 g/ha [2, 10] [%] | pest or weed control at 140 g/ha [2, 10] [%] | pest or weed control at 70 g/ha [1, 11] [%] | pest or weed control at 140 g/ha [1, 12] [%] | pest or weed control at 70 g/ha [1, 13] [%] | also measured
126 to 128 °C (dec.) | COc1c(N)nc(-c2ccc(Br)c(F)c2F)nc1C(=O)O [Compound 8] | 60 to 74 | 75 to 84 | 95 to 100 | 95 to 100 | 75 to 84 | 85 to 94 | 85 to 94 | 85 to 94 | 30 to 44 | 45 to 59 | 75 to 84 | 95 to 100 | 95 to 100 | 95 to 100 | 60 to 74 | 85 to 94 |  |  |  | pest or weed control at 70 g/ha ([1]; ABUTH: velvetleaf (Abutilon theophrasti), application rate 70 g ai/ha, read-out: Visual Growth Reduction (%) 14 Days After Application, ABUTH): 95 to 100%; pest or weed control at 140 g/ha ([1]; ABUTH: velvetleaf (Abutilon theophrasti), application rate 140 g ai/ha, read-out: Visual Growth Reduction (%) 14 Days After Application, ABUTH): 95 to 100%; pest or weed control at 70 g/ha ([1]; AMARE: redroot pigweed (Amaranthus retroflexus), application rate 70 g ai/ha, read-out: Visual Growth Reduction (%) 14 Days After Application, AMARE): 95 to 100%; pest or weed control at 140 g/ha ([1]; AMARE: redroot pigweed (Amaranthus retroflexus), application rate 140 g ai/ha, read-out: Visual Growth Reduction (%) 14 Days After Application, AMARE): 95 to 100%; pest or weed control at 70 g/ha ([1]; BRSNN: oilseed-rape, canola (Brassica napus), application rate 70 g ai/ha, read-out: Visual Growth Reduction (%) 14 Days After Application, BRSNN): 95 to 100%; pest or weed control at 140 g/ha ([1]; BRSNN: oilseed-rape, canola (Brassica napus), application rate 140 g ai/ha, read-out: Visual Growth Reduction (%) 14 Days After Application, BRSNN): 95 to 100%; pest or weed control at 70 g/ha ([1]; CHEAL: lambsquarters (Chenopodium album), application rate 70 g ai/ha, read-out: Visual Growth Reduction (%) 14 Days After Application, CHEAL): 95 to 100%; pest or weed control at 140 g/ha ([1]; CHEAL: lambsquarters (Chenopodium album), application rate 140 g ai/ha, read-out: Visual Growth Reduction (%) 14 Days After Application, CHEAL): 95 to 100%; pest or weed control at 70 g/ha ([1]; EPHHL: wild poinsettia (Euphorbia heterophylla), application rate 70 g ai/ha, read-out: Visual Growth Reduction (%) 14 Days After Application, EPHHL): 95 to 100%; pest or weed control at 140 g/ha ([1]; EPHHL: wild poinsettia (Euphorbia heterophylla), application rate 140 g ai/ha, read-out: Visual Growth Reduction (%) 14 Days After Application, EPHHL): 95 to 100%; pest or weed control at 70 g/ha ([1]; HELAN: sunflower (Helianthus annuus), application rate 70 g ai/ha, read-out: Visual Growth Reduction (%) 14 Days After Application, HELAN): 95 to 100%; pest or weed control at 140 g/ha ([1]; HELAN: sunflower (Helianthus annuus), application rate 140 g ai/ha, read-out: Visual Growth Reduction (%) 14 Days After Application, HELAN): 95 to 100%; pest or weed control at 70 g/ha ([1]; VIOTR: wild pansy (Viola tricolor), application rate 70 g ai/ha, read-out: Visual Growth Reduction (%) 14 Days After Application, VIOTR): 95 to 100%; pest or weed control at 140 g/ha ([1]; VIOTR: wild pansy (Viola tricolor), application rate 140 g ai/ha, read-out: Visual Growth Reduction (%) 14 Days After Application, VIOTR): 95 to 100%
209.7 to 211.9 °C | COC(=O)c1nc(-c2cc(F)c(C#N)cc2F)cc(N)c1Cl [Compound 202] |  |  | 85 to 94 | 85 to 94 | 30 to 44 | 60 to 74 | 60 to 74 | 95 to 100 | 0 to 29 | 0 to 29 | 60 to 74 | 60 to 74 | 60 to 74 | 85 to 94 | 30 to 44 | 45 to 59 | 95 to 100 | 95 to 100 | 95 to 100 | pest or weed control at 140 g/ha [1, 14]: 95 to 100%; pest or weed control at 70 g/ha [1, 15]: 75 to 84%; pest or weed control at 140 g/ha [1, 16]: 85 to 94%; pest or weed control at 70 g/ha [1, 17]: 95 to 100%; pest or weed control at 140 g/ha [1, 18]: 95 to 100%; pest or weed control at 70 g/ha [1, 19]: 95 to 100%; pest or weed control at 140 g/ha [1, 20]: 95 to 100%; pest or weed control at 70 g/ha [1, 21]: 95 to 100%; pest or weed control at 140 g/ha [1, 22]: 95 to 100%; pest or weed control at 70 g/ha [1, 23]: 60 to 74%; pest or weed control at 140 g/ha [1, 24]: 60 to 74%; pest or weed control at 70 g/ha [2, 25]: 60 to 74%; pest or weed control at 140 g/ha [2, 25]: 75 to 84%
154 to 157 °C | C=Cc1c(N)nc(-c2ccc(F)c(F)c2F)nc1C(=O)O [Compound 191, 6-Amino-2-(2,3,4-trifluorophenyl)-5-vinylpyrimidine-4-carboxylic acid] | 0 to 29 | 30 to 44 | 0 to 29 | 60 to 74 | 60 to 74 | 75 to 84 | 85 to 94 | 75 to 84 | 0 to 29 | 0 to 29 | 75 to 84 | 75 to 84 | 45 to 59 | 45 to 59 | 45 to 59 | 60 to 74 | 60 to 74 | 95 to 100 | 95 to 100 | pest or weed control at 140 g/ha [1, 14]: 95 to 100%; pest or weed control at 70 g/ha [1, 15]: 95 to 100%; pest or weed control at 140 g/ha [1, 16]: 95 to 100%; pest or weed control at 70 g/ha [1, 17]: 95 to 100%; pest or weed control at 140 g/ha [1, 18]: 95 to 100%; pest or weed control at 70 g/ha [1, 19]: 95 to 100%; pest or weed control at 140 g/ha [1, 20]: 95 to 100%; pest or weed control at 70 g/ha [1, 21]: 95 to 100%; pest or weed control at 140 g/ha [1, 22]: 95 to 100%; pest or weed control at 70 g/ha [1, 23]: 45 to 59%; pest or weed control at 140 g/ha [1, 24]: 45 to 59%
